System: mAbs 2C5, 10A1 and 10D6
Test: Glycan microarray binding of purified mAbs
Set-up: species or system mouse
Conditions: purified mAbs on microarray, 10 μg ml^−1
Text: Three hybridoma clones termed 2C5, 10A1 and 10D6 produced IgG exclusively binding to 1. […] The three mAbs were of the IgG1 subtype (Fig. 4b). Microarrays with PS-I oligosaccharide substructures were used to determine their binding specificities (Fig. 4c). […] No binding to oligoglucoses 5 and 6, or unrelated glycans 7 or 8 was seen (Fig. 4c,d). Based on these findings, we concluded that the requirements for anti-PS-I antibody binding were a terminal rhamnose that is 1→3 linked to a glucose, as present in glycans 1–3.
Figure 4 Characterization and epitope recognition patterns of anti-PS-I mAbs. (a) SDS–PAGE analysis of the purified mAbs showing bands corresponding to heavy and light IgG chains. (b) Isotyping analysis of the three mAbs. […] (d) Glycan microarray-inferred binding signals to selected PS-I antigens (1–4) expressed as background-subtracted mean fluorescence intensities (MFIs) are shown. […]
Microarray slides were blocked with 1% BSA in PBS (w/v) for 1 h at RT, washed three times with PBS and dried by centrifugation (300 g, 5 min). […] Slides were incubated with fluorescence-labelled secondary antibodies diluted 1:400 in 1% BSA in PBS (w/v) in a humid chamber for 1 h at RT, washed three times with 0.1% Tween-20 in PBS (v/v), rinsed once with deionized water and dried by centrifugation (300 g, 5 min) before scanning with a GenePix 4300A microarray scanner (Molecular Devices). […]

SMILES	Glycan microarray binding signal (in words)
C[C@@H]1O[C@@H](O[C@@H]2[C@@H](O)[C@H](O[C@H]3[C@H](O[C@@H]4O[C@@H](C)[C@H](O)[C@@H](O)[C@H]4O)[C@@H](O)[C@@H](O[C@H]4[C@@H](OCCCCCN)O[C@H](CO)[C@@H](O)[C@@H]4O)O[C@@H]3CO)O[C@H](CO)[C@H]2O)[C@H](O)[C@H](O)[C@H]1O [Compound 1]	Highest binding signals
C[C@@H]1O[C@@H](O[C@@H]2[C@@H](O)[C@H](OCCCCCN)O[C@H](CO)[C@H]2O)[C@H](O)[C@H](O)[C@H]1O [Compound 3, Rha-(1→3)-Glc]	weaker signals

— article PMC4838876, “Multivalent display of minimal Clostridium difficile glycan epitopes mimics antigenic properties of larger glycans” (Nature Communications, 2016)
